Test results: patent US20230279018A1, “AP[…] INHIBITION” (priority 2020, published 2023)

How the values were obtained:
[1] = biological target: T1, HscFRS (Homo sapiens, UniProt Q9Y285); assay: Surface Plasmon Resonance binding, HscFRS; details: SPR, 25° C., PBS pH 7.4, 5% DMSO; read-out: cFRS Kd, Hs
T1 sequence (Q9Y285 1-508): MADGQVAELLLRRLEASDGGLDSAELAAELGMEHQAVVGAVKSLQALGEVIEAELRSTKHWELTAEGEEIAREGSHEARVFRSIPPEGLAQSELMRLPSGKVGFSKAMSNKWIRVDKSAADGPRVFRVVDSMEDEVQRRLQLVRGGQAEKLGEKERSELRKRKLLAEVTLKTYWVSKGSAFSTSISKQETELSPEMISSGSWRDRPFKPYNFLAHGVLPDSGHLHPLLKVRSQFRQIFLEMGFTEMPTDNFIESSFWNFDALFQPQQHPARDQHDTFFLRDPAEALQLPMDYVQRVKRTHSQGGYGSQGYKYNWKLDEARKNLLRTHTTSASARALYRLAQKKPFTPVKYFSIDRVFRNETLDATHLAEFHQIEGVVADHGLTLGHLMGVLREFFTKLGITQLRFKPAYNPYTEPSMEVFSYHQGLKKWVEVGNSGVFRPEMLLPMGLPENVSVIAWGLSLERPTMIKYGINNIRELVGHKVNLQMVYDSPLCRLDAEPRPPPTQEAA
T1 sequence (Q9NSD9 1-589 partner): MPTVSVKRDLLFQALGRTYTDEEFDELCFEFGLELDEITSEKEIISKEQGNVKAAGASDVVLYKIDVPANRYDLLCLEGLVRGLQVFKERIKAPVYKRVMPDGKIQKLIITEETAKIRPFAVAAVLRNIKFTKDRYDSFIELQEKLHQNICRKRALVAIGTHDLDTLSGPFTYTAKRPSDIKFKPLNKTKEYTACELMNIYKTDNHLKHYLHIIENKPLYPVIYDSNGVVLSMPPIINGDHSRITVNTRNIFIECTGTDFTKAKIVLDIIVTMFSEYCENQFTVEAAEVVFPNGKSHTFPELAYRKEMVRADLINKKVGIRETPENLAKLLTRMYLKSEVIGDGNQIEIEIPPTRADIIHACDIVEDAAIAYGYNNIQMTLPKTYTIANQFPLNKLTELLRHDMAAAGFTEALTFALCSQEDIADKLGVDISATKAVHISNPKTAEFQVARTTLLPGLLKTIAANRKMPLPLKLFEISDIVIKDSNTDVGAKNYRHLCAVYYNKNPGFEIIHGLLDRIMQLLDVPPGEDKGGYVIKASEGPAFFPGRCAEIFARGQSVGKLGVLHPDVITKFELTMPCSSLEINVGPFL
Experimental: Surface Plasmon Resonance experiments to evaluate the binding of Compound 1 to proteins were carried out on a Biacore T200 instrument (GE Healthcare) at 25° C. The binding experiments were performed in buffer 10 mM phosphate buffered saline (PBS), pH 7.4, containing 5% dimethyl sulfoxide (DMSO). The flow system was primed with the running buffer before the initiation of the experiment. Both PfcFRS and HscFRS were immobilized to Sensor Chip CM5 by standard amine coupling chemistry using N-hydroxysuccinimide (NHS) and ethyl(dimethylaminopropyl) carbodiimide (EDC), to an immobilization level of approximately 1500 RU. The binding experiments were carried out in a single cycle kinetics mode. Compound 1 was serially diluted in running buffer, and injected at a flow rate of 60 μl min^−1 across both surface for 60 s and dissociation were set up for 120 s. The analysis was done using Biaevaluation (GE Healthcare) and GraphPad Prism 7 software (GraphPad Software Inc, USA). […] The equilibrium dissociation constants (Kd) were determined by plotting the measured response (Req) as a function of the analyte concentration. […] Measured sensograms illustrating the binding of various concentrations of Compound 1 to the protein are shown in FIG. 3B (PfcFRS) and 3C (HscFRS) including both the measured data and the 1:1 binding model fit.

[2] = biological target: T1, HscFRS; assay: malachite green-based aminoacylation assay, HscFRS; format: biochemical; details: aminoacylation activity
Text: (§1) EC50 assays were run as described in Int'l Pub Nos. WO 2015070204, WO 2018175385, and Kato, N, et al. Nature 538 (2016): 344-349, which are hereby incorporated by reference in its entirety. The inhibition of the aminoacylation activity of Pf (Plasmodium falciparum), Pv (Plasmodium vivax), Hs (Human) and Pf-Mut (L550V) cFRS enzymes by Compound 1 are illustrated in FIG. 1.
(§2) The enzymatic activity of purified heterodimeric PfcFRS using malachite green-based aminoacylation assays with substrates L-Phe and ATP was also measured as described in Cestari, I. et al., J Biomol. Screen. 18 (2013): 490-497 and Kato, N, et al. Nature 538 (2016): 344-349, which are hereby incorporated by reference in its entirety. […] Enzymatic reactions (50 μl total volume) were performed in clear, flat-bottomed, 96-well plates (Costar 96-well standard microplates). The reaction mixture was incubated for 2 h at 37° C. The reaction was stopped by adding 12.5 μl of malachite green solution to the reaction mixture and levels of inorganic phosphate (Pi) were detected after incubation of 5 min at room temperature. Absorbance was the measured at 620 nm using a Spectramax M2 (Molecular Devices). Reactions without FRS enzyme were performed as background controls, values of which were subtracted from the reactions with enzyme. […]

[3] = biological target: T2, Pv (Plasmodium vivax) cFRS (Plasmodium vivax, UniProt A5K9S0); assay: malachite green-based aminoacylation assay, PvcFRS; format: biochemical; details: aminoacylation activity
T2 construct: Full-length PvcFRS was also purified according to the same protocol; His6 (encoded by vector pETM11); made in house; host or cells: E. coli strain B834
T2 sequence (A5K9S0 whole entry): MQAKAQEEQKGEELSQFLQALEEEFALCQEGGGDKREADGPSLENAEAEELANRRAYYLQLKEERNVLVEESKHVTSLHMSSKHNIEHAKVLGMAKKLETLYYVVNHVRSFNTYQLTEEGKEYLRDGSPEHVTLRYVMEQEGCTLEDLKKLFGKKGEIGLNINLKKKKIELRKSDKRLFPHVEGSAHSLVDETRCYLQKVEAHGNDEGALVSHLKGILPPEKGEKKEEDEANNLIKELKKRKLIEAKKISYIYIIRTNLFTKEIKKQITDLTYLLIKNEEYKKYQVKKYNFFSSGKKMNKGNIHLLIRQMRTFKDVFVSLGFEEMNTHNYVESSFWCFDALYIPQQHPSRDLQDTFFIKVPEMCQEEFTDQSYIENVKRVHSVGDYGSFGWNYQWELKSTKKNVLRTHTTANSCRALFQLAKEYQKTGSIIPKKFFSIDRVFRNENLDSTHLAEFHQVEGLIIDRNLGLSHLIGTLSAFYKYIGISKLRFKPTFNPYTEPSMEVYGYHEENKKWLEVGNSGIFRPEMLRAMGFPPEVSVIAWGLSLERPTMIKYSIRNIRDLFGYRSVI
T2 sequence (A5K464 whole entry, further chain): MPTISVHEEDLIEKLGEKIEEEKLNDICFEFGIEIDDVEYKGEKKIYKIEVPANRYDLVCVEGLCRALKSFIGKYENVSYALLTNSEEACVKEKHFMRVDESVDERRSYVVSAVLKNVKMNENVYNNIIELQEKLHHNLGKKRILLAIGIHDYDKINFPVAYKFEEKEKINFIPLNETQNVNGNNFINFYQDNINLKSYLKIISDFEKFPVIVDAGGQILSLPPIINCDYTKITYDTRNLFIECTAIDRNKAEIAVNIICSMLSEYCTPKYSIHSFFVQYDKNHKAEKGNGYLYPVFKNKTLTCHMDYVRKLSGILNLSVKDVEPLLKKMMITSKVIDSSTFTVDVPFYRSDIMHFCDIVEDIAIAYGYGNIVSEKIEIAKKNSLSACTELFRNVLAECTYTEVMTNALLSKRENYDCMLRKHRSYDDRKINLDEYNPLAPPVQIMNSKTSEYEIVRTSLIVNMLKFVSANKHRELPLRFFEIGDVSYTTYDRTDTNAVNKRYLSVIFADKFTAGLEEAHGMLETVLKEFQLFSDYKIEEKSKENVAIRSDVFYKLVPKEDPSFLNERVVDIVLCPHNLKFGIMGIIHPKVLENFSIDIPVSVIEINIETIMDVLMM
Text: as §1, §2

SMILES: COC[C@@H]1[C@H](c2ccc(C#Cc3ccccc3)cc2)[C@@H]2CN(C(=O)Nc3ccc(OC4CC4)cc3)C[C@@H](O)[C@@H](O)CN12 [Compound 1, (3S,4R,8R,9R,10S)—N-(4-cyclopropoxyphenyl)-3,4-dihydroxy-10-(methoxymethyl)-9-(4-(phenylethynyl)phenyl)-1,6-diazabicyclo[6.2.0]decane-6-carboxamide]
- Kd [1]: 16 µM
- IC50 [2]: 12 µM
- IC50 [3]: 0.025 µM
